PubChem BioAssay (NCI)
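All cell lines were grown in 96-well plates and treated with compound for 48 hours. TGI marks complete inhibition of growth.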

Tests used:
Experiment in all cases: growth of human tumour cells (NCI), 48 h
HL-60(TB) leukemia = system: HL-60(TB) leukemia
SW-620 colon = system: SW-620 colon
SR leukemia = system: SR leukemia
HOP-92 NSCLC = system: HOP-92 NSCLC
DLD-1 colon = system: DLD-1 colon
OVCAR-5 ovarian = system: OVCAR-5 ovarian
CCRF-CEM leukemia = system: CCRF-CEM leukemia
U251 CNS = system: U251 CNS
IGROV1 ovarian = system: IGROV1 ovarian
NCI-H23 lung = system: NCI-H23 lung
LOX IMVI melanoma = system: LOX IMVI melanoma
SK-MEL-5 melanoma = system: SK-MEL-5 melanoma
NCI-H522 lung = system: NCI-H522 lung
HT29 colon = system: HT29 colon
HCT-116 colon = system: HCT-116 colon
HOP-18 NSCLC = system: HOP-18 NSCLC
SNB-75 CNS = system: SNB-75 CNS
COLO 205 colon = system: COLO 205 colon
EKVX NSCLC = system: EKVX NSCLC
SF-295 CNS = system: SF-295 CNS
SF-268 CNS = system: SF-268 CNS
OVCAR-8 ovarian = system: OVCAR-8 ovarian
SNB-78 CNS = system: SNB-78 CNS
ACHN renal = system: ACHN renal
HCT-15 colon = system: HCT-15 colon
OVCAR-4 ovarian = system: OVCAR-4 ovarian
NCI-H226 lung = system: NCI-H226 lung
K-562 leukemia = system: K-562 leukemia
UACC-257 melanoma = system: UACC-257 melanoma
SNB-19 CNS = system: SNB-19 CNS
RPMI-8226 leukemia = system: RPMI-8226 leukemia
UACC-62 melanoma = system: UACC-62 melanoma
M14 melanoma = system: M14 melanoma
MOLT-4 leukemia = system: MOLT-4 leukemia
NCI-H460 lung = system: NCI-H460 lung
M19-MEL melanoma = system: M19-MEL melanoma
HOP-62 NSCLC = system: HOP-62 NSCLC
A549 NSCLC = system: A549 NSCLC
SK-MEL-28 melanoma = system: SK-MEL-28 melanoma
SF-539 CNS = system: SF-539 CNS
A498 renal = system: A498 renal
DMS 273 small cell lung = system: DMS 273 small cell lung
KM20L2 colon = system: KM20L2 colon
LXFL 529 NSCLC = system: LXFL 529 NSCLC
DMS 114 small cell lung = system: DMS 114 small cell lung
KM12 colon = system: KM12 colon
786-0 renal = system: 786-0 renal
SN12C renal = system: SN12C renal

Measured: TGI

COc1ccc(/C=C/C(=O)c2cc(C(=O)O)c(OC)cc2OC)cc1OC
> 100 µM: all assays above
